The nature of this data set: gradient 5% acetonitrile 3 min, to 50% in 2 min, to 85% in 15 min, held 3 min, 100 µL/min. Conditions: column: Zorbax Extend-C18 2.1 x 50 mm; eluents: water / acetonitrile, 0.1% formic acid. The procedure, abridged: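 Pure standards were run in mixtures of ~100 molecules by HPLC coupled to a quadrupole time-of-flight mass spectrometer. The column was a Zorbax Extend-C18 (2.1 × 50 mm, 1.8 μm) at 100 μL/min, with water and acetonitrile each containing 0.1% formic acid, in positive and negative ionization mode. Dead and dwell volumes were 40 μL and 900 μL. Retention time was taken from computationally picked adduct peaks, each manually inspected, with data collected over 3 months.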
The compound `O=C1CC(C(F)(F)F)c2c(c(C(=O)O)cn2-c2ccccc2Cl)N1` (stereo not given) showed an RP-LC retention time of 737 s.

In the case of `COc1ccc(Cl)cc1C(=O)Nc1ccc2c(c1)CN(C(=O)c1cccs1)CC2`, the RP-LC retention time is 958 s.

`Fc1ccc(-c2noc(Cn3ccnc3)n2)cc1Br` yielded an RP-LC retention time of 650 s.

In turn, `COc1ccc(N2C=C(C(=O)N3CCOCC3)S(=O)(=O)c3ccccc32)cc1OC` returned an RP-LC retention time of 695 s.

Regarding `CCc1noc(NC(C)=O)c1-c1ccc(C)c(S(=O)(=O)Nc2c(Cl)cc(OC)cc2OC)c1`, the RP-LC retention time was 827 s.

Consider `O=C1Nc2ccccc2OC1C(=O)N1CCN(c2ccc(Cl)cc2)CC1` (stereo not given), for which the RP-LC retention time amounted to 889 s.

For the compound `O=C(c1ccco1)N1CCN(C(=O)c2nc(-c3ccc(Cl)cc3)n3c2CCCCC3)CC1`, the RP-LC retention time turned out to be 741 s.

`CCc1ccc(CNC(=O)C2CCCN(c3ncnc4c3oc3ccccc34)C2)cc1` (stereo not given) showed an RP-LC retention time of 871 s.

In turn, `Cc1sc(NC(=O)c2ccco2)nc1-c1ccc2c(c1)NC(=O)C(C)O2` (stereo not given) registered an RP-LC retention time of 814 s.

With `O=C(c1ccsc1)N1CCCC1c1nc(CCOCC2CCCC2)no1` (stereo not given), the RP-LC retention time is 980 s.

As to `COc1ccc(-c2nc(-c3ccc4c(c3)oc(=O)n4C(C)C)no2)cc1`, the RP-LC retention time was found to be 1070 s.

In turn, `O=S(=O)(c1ccccc1F)N1CCC(c2noc(-c3cccc(F)c3)n2)CC1` gave an RP-LC retention time of 1110 s.

`COc1cccc(-c2noc(Cc3nnc(-c4cc(F)cc(F)c4)o3)n2)c1OC` displayed an RP-LC retention time of 968 s.

Take `CN(C)c1cc(C(=O)NC2CCCC2)c2ccccc2n1`: the RP-LC retention time is 619 s.

In the case of `CCCNC(=O)C1CCN(c2ccc(SCC(=O)Nc3cc(F)ccc3F)nn2)CC1`, the RP-LC retention time turned out to be 670 s.

`CCn1cnc(S(=O)(=O)N2CCC(C(=O)Nc3cc(C)ccc3OC)CC2)c1` displayed an RP-LC retention time of 674 s.

In the case of `Cc1ccc(CNC(=O)Cn2nc(N3CCCC3)c3ccccc3c2=O)cc1`, the RP-LC retention time came out at 908 s.

The compound `O=C(Cc1cccc(F)c1)N1CCc2cc(-c3ccno3)ccc21` yielded an RP-LC retention time of 948 s.

`CCCN(CC1CCOC1)C(=O)Nc1ccccc1CC` (stereo not given) yielded an RP-LC retention time of 823 s.

As to `CNc1oc(-c2ccco2)nc1S(=O)(=O)c1ccc(F)cc1`, the RP-LC retention time stood at 809 s.

`CC(C)n1cnc2cc(CNC(=O)c3ccoc3)ccc21` had an RP-LC retention time of 574 s.

Consider `CS(=O)(=O)N1CCCC(C(=O)Nc2nc3cc4c(cc3s2)OCCO4)C1` (stereo not given), for which the RP-LC retention time was determined as 707 s.

With `Cc1nn(C)c(=O)c2cc(S(=O)(=O)NCc3ccc(F)cc3)cn12`, the RP-LC retention time came to 766 s.

Regarding `CCc1ccc(OCc2nc(C)c(C(=O)Nc3nc(-c4ccc(F)cc4)cs3)s2)cc1`, the RP-LC retention time was 1320 s.

The compound `O=C(NCC(O)c1ccsc1)NC1CCCCC1` (stereo not given) showed an RP-LC retention time of 658 s.

`CCN1C(=O)c2cccnc2Sc2cc(C(=O)NC(C)C)ccc21` came in with an RP-LC retention time of 697 s.

Take `Cc1cccc(-n2c(N3CCCC(C(=O)NCc4ccccc4Cl)C3)nc3ccsc3c2=O)c1` (stereo not given): the RP-LC retention time was found to be 956 s.

For `Cn1cc(CC(=O)N2CCC(C(=O)NCC(F)(F)F)CC2)c2ccccc21`, the RP-LC retention time turned out to be 718 s.

`COc1ccc(C(=O)Nc2ccc3c(c2)Sc2ncccc2C(=O)N3C)cc1` showed an RP-LC retention time of 752 s.

`O=C(NCc1ccncc1)c1ccc(-c2ccc(N3CCSCC3)nc2)cc1` gave an RP-LC retention time of 574 s.

The compound `COCCN1CCn2cc(S(=O)(=O)Nc3ccc(C)cc3C)cc2C1=O` had an RP-LC retention time of 730 s.

For `COc1ccc(NC(=O)Cn2nc(N3CCOCC3)c3ccccc3c2=O)cc1`, the RP-LC retention time was 730 s.

With `O=C(c1ccc(Br)cc1)N1CCN=C1N1CCN(c2ccccc2F)CC1`, the RP-LC retention time was found to be 632 s.

For `COc1ccc(OC)c(NC(=O)C2CCN(S(=O)(=O)c3c(C)nn(-c4ccccc4)c3C)CC2)c1`, the RP-LC retention time was 974 s.

`Cn1nnc2c(SCC(=O)NCc3ccco3)ncnc21` yielded an RP-LC retention time of 631 s.

In turn, `CCCN1C(=O)COc2ccc(-c3noc(C(C)Oc4ccccc4)n3)cc21` (stereo not given) showed an RP-LC retention time of 1160 s.

In turn, `CCOc1cc(=O)n2c(c1C(=O)NC1CCCC1)CCCCC2` registered an RP-LC retention time of 671 s.

For the compound `O=C(c1ccc2ccnc(N3CCN(c4ccc(Cl)cc4)CC3)c2c1)N1CCCCCC1`, the RP-LC retention time worked out at 986 s.

The compound `O=C(COc1ccc(F)cc1)N1CCCC1c1nc(-c2ccc(F)cc2F)no1` (stereo not given) registered an RP-LC retention time of 950 s.

On to `CCCCn1cc(S(=O)(=O)NCc2ccccn2)c2cccnc21`, for which the RP-LC retention time turned out to be 671 s.

The compound `C=CCc1ccccc1OCC(O)CNC(C)C` (stereo not given) showed an RP-LC retention time of 706 s.

Compound `CC(Oc1ccccc1)C(=O)N(C)CCc1noc(-c2ccccc2)n1` (stereo not given) came in with an RP-LC retention time of 903 s.

`Cn1nnc2cc(CNC(=O)c3cccnc3)ccc21` returned an RP-LC retention time of 566 s.

`Cc1cc2oc(C(=O)NCC(c3cccs3)N(C)C)cc(=O)c2cc1Cl` (stereo not given) yielded an RP-LC retention time of 652 s.

Regarding `COc1ccc(N2CC(c3nc(-c4cccnc4)no3)CC2=O)cc1OC` (stereo not given), the RP-LC retention time is 665 s.

`CCN(CC)C(=O)c1ccc2c(c1)nnn2CCNC(=O)Nc1ccc2c(c1)CCC2` yielded an RP-LC retention time of 764 s.

Take `Cc1cc(C)n2nc(SCC(=O)N(C)c3ccccc3)nc2n1`: the RP-LC retention time turned out to be 705 s.

Compound `COc1ccc(C2Cn3cnc(-c4nc(-c5ccc(OC)cc5OC)no4)c3CO2)cc1` (stereo not given) registered an RP-LC retention time of 912 s.

`Cc1ccc(-c2noc(C3CCCN3S(=O)(=O)c3ccc(C(C)(C)C)cc3)n2)cc1` (stereo not given) came in with an RP-LC retention time of 788 s.

`CCC(c1cccs1)N1C(=O)[C@H]2CN(Cc3cccnc3)C[C@H]2C1=O` (stereo not given in full) came in with an RP-LC retention time of 653 s.

For the compound `Fc1cccc(Cl)c1C1SCc2nc3ccccc3n21` (stereo not given), the RP-LC retention time was determined as 845 s.

`C[C@@H]1CCC2(NC1)O[C@H]1C[C@H]3[C@@H]4CC=C5C[C@@H](O)CC[C@]5(C)[C@H]4CC[C@]3(C)[C@H]1[C@H]2C` (stereo not given in full) registered an RP-LC retention time of 757 s.

`COC(=O)C1=CN(c2ccc(OC)c(OC)c2)c2cc(F)ccc2S1(=O)=O` yielded an RP-LC retention time of 821 s.

With `CCNS(=O)(=O)c1cc(-c2c(CC)noc2NC(C)=O)ccc1OC`, the RP-LC retention time came to 668 s.

As for `Cc1cc(C)nc(Nc2nc(C(=O)NCCn3nc(-c4ccco4)ccc3=O)cs2)n1`, the RP-LC retention time was determined as 693 s.

`O=C(NC1CCCC1)C(=O)c1cccn1Cc1ccc(F)cc1` gave an RP-LC retention time of 1020 s.

The compound `O=C(Cn1c(=O)cc(-c2nc(C3CC3)no2)c2ccccc21)NC1CCCCC1` came in with an RP-LC retention time of 932 s.

In the case of `CCC(=O)N(Cc1ccc(F)cc1)C(C)C(=O)c1c(C)c(C(=O)OC)n(C)c1C` (stereo not given), the RP-LC retention time was 922 s.

On to `COc1ccc(-c2nc(C)cc(C)c2CNS(=O)(=O)c2ccc(F)cc2)cc1`, for which the RP-LC retention time was 654 s.

`O=C(NC1CCCCC1)C1CCCN(C(=O)c2ccc(Cl)cc2)C1` (stereo not given): the RP-LC retention time worked out at 855 s.

With `O=C(Nc1ccccc1)C1CCN(S(=O)(=O)c2cc(C(=O)N3CCCCCC3)cs2)CC1`, the RP-LC retention time was determined as 896 s.

`CC1Cc2ccccc2N1Cc1nnc(-c2ccccc2)o1` (stereo not given): the RP-LC retention time amounted to 972 s.

For `Cc1noc(C2CN(C(=O)Cc3ccccc3)CC23CCN(C)CC3)n1` (stereo not given), the RP-LC retention time was 920 s.

`O=C(NCc1ccc(F)cc1F)c1ccc(OCC(=O)C2CC2)cc1` gave an RP-LC retention time of 784 s.

As to `CCCN1CCN(C(=O)CC(c2cc(OC)c(OC)c(OC)c2)N2Cc3ccccc3C2=O)CC1` (stereo not given), the RP-LC retention time worked out at 626 s.

Take `O=C(CN1c2ccccc2NC2=C(C(=O)CCC2)C1c1ccco1)Nc1ccc(F)cc1` (stereo not given): the RP-LC retention time was determined as 1070 s.

For the compound `O=C(c1ccccc1F)N1N=C(c2cccs2)CC1c1ccc2nccnc2c1` (stereo not given), the RP-LC retention time is 791 s.

Take `O=C(Cc1ccc(Cl)cc1)N1CCc2cc(-c3ccno3)ccc21`: the RP-LC retention time was 1030 s.

The compound `Cc1cc(C(=O)NCc2ccccc2F)nc2cc(-c3cccs3)nn12` gave an RP-LC retention time of 1120 s.

For `CCOC(=O)C1CCN(c2cc3c(cc2NC(=O)NCC(C)C)n(C)c(=O)n3C)CC1`, the RP-LC retention time was found to be 685 s.

`O=C(NC1CC1)[C@@H]1C[C@H](Oc2ccccc2)CN1C(=O)COc1ccccc1` registered an RP-LC retention time of 797 s.

The compound `CCC(C)n1[nH]c(=O)c2c1NC(=O)CSC2c1ccc(OC)c(OC)c1` (stereo not given) gave an RP-LC retention time of 654 s.

On to `Cc1nn2c(=O)cc(CSc3nnc(-c4ccc5c(c4)OCO5)o3)nc2s1`, for which the RP-LC retention time was 713 s.

Compound `O=C(CSc1nc2ncccc2[nH]1)NC1CCCC1` yielded an RP-LC retention time of 585 s.

As for `COCC(=O)Nc1cc(=O)n(C)c(=O)n1C`, the RP-LC retention time worked out at 552 s.

In turn, `COc1ccc(C(=O)/C(Br)=C/C(=O)O)cc1` had an RP-LC retention time of 744 s.

Regarding `CN(C)CC1(O)CCC2(CCN(Cc3ccc(Cl)c(F)c3)CC2)CC1`, the RP-LC retention time worked out at 658 s.

`O=C(c1ccccc1)N1CCCc2cc(NS(=O)(=O)c3ccccc3Cl)ccc21` returned an RP-LC retention time of 816 s.

`CNC(=O)c1cc[nH]c1C1CCCN(C(=O)C2CC=CCC2)C1` (stereo not given) registered an RP-LC retention time of 672 s.

The compound `COCCN1C(=O)c2ccccc2C(C(=O)Nc2nc(C)c(C)s2)C12CCCC2` (stereo not given) displayed an RP-LC retention time of 842 s.

The record behind these values is the METLIN SMRT retention time set (Domingo-Almenara et al. 2019).
